Experimental data: ChEMBL document CHEMBL3045497, “An analogue of piperonyl butoxide facilitates the characterisation of metabolic resistance” (Pest Manag Sci, 2009)
≈ marks a conversion by molar mass, not a printed value. Calls of active or inactive are those of the source. The rule behind the calls is not given here.

Tests used:
[1] = Inhibition of B-type Bemisia tabaci (sweet potato whitefly) esterase using 31.25 uM of 1-naphthyl butyrate as substrate after 120 min
Bemisia tabaci [2] = assay: Inhibition of B-type Bemisia tabaci (sweet potato whitefly) oxidase-mediated O-deethylation using 18 uM of 7-ethoxycoumarin as substrate assessed as residual activity after 10 min relative to control
[3] = Inhibition of B-type Bemisia tabaci (sweet potato whitefly) esterase using 500 uM of 1-naphthyl butyrate as substrate after 120 min
Bemisia tabaci [4] = assay: Reversible inhibition of B-type Bemisia tabaci (sweet potato whitefly) esterase using 1-naphthyl butyrate as substrate after 10 to 120 min
Bemisia tabaci [5] = assay: Inhibition of B-type Bemisia tabaci (sweet potato whitefly) oxidase-mediated O-deethylation using 285 uM of 7-ethoxycoumarin as substrate assessed as residual activity after 10 min relative to control
Bemisia tabaci [6] = assay: Non-competitive inhibition of B-type Bemisia tabaci (sweet potato whitefly) esterase using 1-naphthyl butyrate as substrate after 10 to 120 min
[7] = Inhibition of B-type Bemisia tabaci (sweet potato whitefly) esterase using 500 uM of 1-naphthyl butyrate as substrate after 10 min
Bemisia tabaci [8] = assay: Inhibition of B-type Bemisia tabaci (sweet potato whitefly) oxidase-mediated O-deethylation using 285 uM of 7-ethoxycoumarin as substrate assessed as residual activity after 120 min relative to control
Bemisia tabaci [9] = assay: Resistant factor, ratio of LC50 for […] (sweet potato whitefly) in presence of EN 16/5-1; assay type: functional
Bemisia tabaci [10] = assay: Resistant factor, ratio of LC50 for […] (sweet potato whitefly) in presence of PBO; assay type: functional
Bemisia tabaci [11] = assay: Insecticidal activity against drug-susceptible Bemisia tabaci SUD-S (sweet potato whitefly) in cotton plant leaf assessed as mortality after 48 hr in presence of EN 16/5-1 pretreated 5 hr before compound challenge; assay type: functional
Bemisia tabaci [12] = assay: Insecticidal activity against drug-resistant Bemisia tabaci GUAMIX (sweet potato whitefly) in cotton plant leaf assessed as mortality after 48 hr in presence of EN 16/5-1 pretreated 5 hr before compound challenge; assay type: functional
Bemisia tabaci [13] = assay: Resistant factor, ratio of LC50 for drug-susceptible Bemisia tabaci SUD-S (sweet potato whitefly) to LC50 for drug-resistant Bemisia tabaci GUAMIX (sweet potato whitefly); assay type: functional
Bemisia tabaci [14] = assay: Insecticidal activity against drug-resistant Bemisia tabaci GUAMIX (sweet potato whitefly) in cotton plant leaf assessed as mortality after 48 hr in presence of PBO pretreated 5 hr before compound challenge; assay type: functional
Bemisia tabaci [15] = assay: Insecticidal activity against drug-resistant Bemisia tabaci GUAMIX (sweet potato whitefly) in cotton plant leaf assessed as mortality after 48 hr; assay type: functional
Bemisia tabaci [16] = assay: Insecticidal activity against drug-susceptible Bemisia tabaci SUD-S (sweet potato whitefly) in cotton plant leaf assessed as mortality after 48 hr in presence of PBO pretreated 5 hr before compound challenge; assay type: functional
Bemisia tabaci [17] = assay: Insecticidal activity against drug-susceptible Bemisia tabaci SUD-S (sweet potato whitefly) in cotton plant leaf assessed as mortality after 48 hr; assay type: functional

Structure (SMILES)	IC50 [1] [µM]	Activity (Bemisia tabaci [2]) [%]	IC50 [3] [µM]	inhibition (Bemisia tabaci [4])	Activity (Bemisia tabaci [5]) [%]	inhibition (Bemisia tabaci [6])	IC50 [7] [µM]	Activity (Bemisia tabaci [8]) [%]	RatioLC50 (Bemisia tabaci [9])	RatioLC50 (Bemisia tabaci [10])	LC50 (Bemisia tabaci [11]) [µg/mL]	LC50 (Bemisia tabaci [12]) [µg/mL]	RatioLC50 (Bemisia tabaci [13])	LC50 (Bemisia tabaci [14]) [µg/mL]	LC50 (Bemisia tabaci [15]) [µg/mL]	LC50 (Bemisia tabaci [16]) [µg/mL]	LC50 (Bemisia tabaci [17]) [µg/mL]
CCCCOCCOCCOCc1cc2c(cc1CCC)CCO2	4.8	42	5.4	Active	78	Active	6.5	82	–	–	–	–	–	–	–	–	–
O=[N+]([O-])/N=C1\NCCN1Cc1ccc(Cl)nc1 [IMIDACLOPRID]	–	–	–	–	–	–	–	–	900	65.5	0.94	847	>670	32.1	> 1000	0.49	1.49 (≈ 5.83 µM)
CCCCOCCOCCOCc1cc2c(cc1CCC)OCO2 [PIPERONYL BUTOXIDE]	5.4	16	5.1	Active	24	Active	4.7	27	–	–	–	–	–	–	–	–	–
